The IC50 is the midpoint of a concentration-inhibition curve.

The test concerns the target T1, VEGFR2 (Homo sapiens, UniProt P35968).
T1 construct: host or cells: HUVEC
Briefly: VEGFR2 Phospho ELISA assay in HUVEC, VEGF stimulated. Conditions: 1 hour compound, 50 ng/mL VEGF 10 minutes. It is filed as cell-based. Here is the method: Adult human umbilical vein endothelial cells (HUVEC) (Cat#CC-2519, Lonza) were seeded into clear-bottom, TC treated 12 well plates (Cat #665180, Greiner Bio-One) in EGM-2 (Cat#CC-3162, Lonza) at 180,000 cells/well (volume 1 mL), and the plates incubated at 37° C. and 5% CO2 for 6 hours. The media was replaced with EBM-2 (Cat #CC-3156, Lonza)+0.1% BSA (Cat#A8412, Sigma) and cells incubated for a further period (overnight at 37° C. and 5% CO2).
96 well Maxisorp immuno plates (Cat #439454, Nunc) were coated with 100 μL of Total VEGFR^2 capture antibody (Part #841434, Human Total VEGFR^2/FLT4 ELISA Kit, Cat #DYC1780, R&D Systems), or Phospho VEGFR^2 Capture antibody (Part #841419, Human Phospho VEGFR^2/FLT4 ELISA Kit, Cat#DYC1766, R&D Systems). The plates were covered and incubated at room temperature overnight.
The coating antibody was flicked out and the plates washed three times with Wash Buffer (Phosphate buffered saline (137 mM NaCl, […], […], […], pH 7.2-7.4), 0.05% Tween 20). 300 μL of Blocking buffer (1% v/v BSA (Cat#A8412, Sigma) in PBS) was then added to wells and plate incubated for 2 hours at room temperature. Blocking solution is flicked out and plates washed three times and tapped dry.
Compound dilution series were prepared in EBM-2 (Cat #CC-3156, Lonza)+0.1% BSA (Cat#A8412, Sigma) with constant 0.1% DMSO concentration. 427.5 μL of sample or vehicle control was added to the cell monolayers. Cells are treated for 1 hour at 37° C. and 5% CO2. 50 ng/mL Recombinant human VEGF (Cat #293-VC, R & D Systems) added to wells and plates incubated for an additional 10 minutes at 37° C. and 5% CO2.
The media and compounds were removed and the cell monolayer washed once in Dulbecco's Phosphate Buffered Saline (Cat #21600-044, Invitrogen). 130 μL of Lysis buffer added to wells and cell lysate harvested and transferred to tubes and stored on ice. Complete lysis buffer was prepared by adding 10 μL Protease Inhibitor Cocktail (Cat #P8340, Sigma-Aldrich), 10 μL PMSF (Phenylmethanesulfonyl fluoride, Cat #P7626, Sigma-Aldrich, prepared as 500 mM DMSO stock) per 1 mL of Phosphosafe™ Extraction Reagent (Cat #71296, Merck).
The harvested samples were then diluted 1:2 in IC Diluent #12 (1% NP-40, […] (pH 8.0), 137 mM NaCl, 10% glycerol, 2 mM EDTA, 1 mM activated sodium orthovanadate) and 100 μL transferred to the Total and Phospho VEGFR^2 coated, blocked and washed 96 well plates and incubated for 2 hours at room temperature. The plates were then washed three times in wash buffer as described above and tapped dry.
For detection of Total VEGFR^2100 μL of Detection antibody (Total VEGFR^2 Detection Antibody Part#841435 in Total VEGFR^2 kit) diluted in IC Diluent #14 (20 mM Tris, […], 0.05% Tween20, 0.1% BSA) was added to wells and the plate incubated for 2 hours at room temperature. The plate was then washed three times in wash buffer and tapped dry. 100 μL of streptavidin-HPR diluted in IC diluent #14 Streptavidin-HRP, Part #890803 in Total VEGFR^2 kit) was added to wells and incubated at room temperature for 20 minutes followed by washing as described above. 100 μL Substrate solution (3,3′,5,5′-Tetramethylbenzidine (TMB) Liquid Substrate System for ELISA, Cat #T0440, Sigma-Aldrich) was added and the plate incubated for 20 minutes in the dark at room temperature followed by the addition of 50 μL stop solution (2 M H2SO4).
Total VEGFR^2 levels were quantified using a Multiskan Ascent plate reader and Ascent software fitted with 450 nm filter.
For detection of Phospho VEGFR^2, 100 μL of Detection antibody (Anti-Phospho-Tyrosine-HRP Detection Antibody, Part #841403 in Phospho VEGFR^2 kit) was diluted in IC Diluent 14 (20 mM Tris, […], 0.05% Tween20, 0.1% BSA), was added to the wells and the plate incubated for 2 hours at room temperature. The plate was then washed three times in wash buffer as described above and tapped dry. […]
On the technique in general: ELISA stands for enzyme-linked immunosorbent assay.

T1 sequence (P35968 20-1356): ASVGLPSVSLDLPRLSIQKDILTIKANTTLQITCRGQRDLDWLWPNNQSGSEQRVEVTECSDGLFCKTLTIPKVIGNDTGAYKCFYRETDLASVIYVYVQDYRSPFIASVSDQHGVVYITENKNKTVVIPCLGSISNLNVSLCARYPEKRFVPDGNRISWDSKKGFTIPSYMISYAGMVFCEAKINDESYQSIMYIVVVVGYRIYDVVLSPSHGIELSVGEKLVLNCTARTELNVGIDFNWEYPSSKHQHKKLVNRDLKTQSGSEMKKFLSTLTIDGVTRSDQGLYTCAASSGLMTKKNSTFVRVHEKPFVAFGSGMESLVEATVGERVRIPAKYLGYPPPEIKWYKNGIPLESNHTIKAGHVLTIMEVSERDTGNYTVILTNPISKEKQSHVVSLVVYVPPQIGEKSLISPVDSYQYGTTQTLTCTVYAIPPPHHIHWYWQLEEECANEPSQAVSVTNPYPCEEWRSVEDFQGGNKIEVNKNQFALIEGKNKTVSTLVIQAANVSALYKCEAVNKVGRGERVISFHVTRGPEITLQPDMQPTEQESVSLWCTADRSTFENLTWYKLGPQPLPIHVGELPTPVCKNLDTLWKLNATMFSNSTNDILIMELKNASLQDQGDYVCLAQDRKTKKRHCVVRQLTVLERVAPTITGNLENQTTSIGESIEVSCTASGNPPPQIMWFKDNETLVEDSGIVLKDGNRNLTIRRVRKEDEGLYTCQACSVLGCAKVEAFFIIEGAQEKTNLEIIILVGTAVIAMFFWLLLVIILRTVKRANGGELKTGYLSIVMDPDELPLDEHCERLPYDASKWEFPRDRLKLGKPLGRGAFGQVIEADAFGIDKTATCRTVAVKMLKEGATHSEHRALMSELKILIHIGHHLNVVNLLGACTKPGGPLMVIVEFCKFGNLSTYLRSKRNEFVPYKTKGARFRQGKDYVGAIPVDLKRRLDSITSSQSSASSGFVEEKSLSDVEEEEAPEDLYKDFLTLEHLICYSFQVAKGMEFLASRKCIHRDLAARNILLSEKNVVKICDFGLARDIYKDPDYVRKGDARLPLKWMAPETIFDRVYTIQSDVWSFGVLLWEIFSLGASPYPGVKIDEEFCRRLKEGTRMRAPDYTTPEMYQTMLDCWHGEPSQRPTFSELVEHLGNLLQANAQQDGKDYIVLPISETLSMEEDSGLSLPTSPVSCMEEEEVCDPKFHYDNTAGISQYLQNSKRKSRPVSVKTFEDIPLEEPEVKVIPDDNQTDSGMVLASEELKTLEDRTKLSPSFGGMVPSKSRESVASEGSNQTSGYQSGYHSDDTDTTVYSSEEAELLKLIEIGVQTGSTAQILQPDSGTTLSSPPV

`Cc1cnc(Nc2ccc(N3CCNCC3)cc2)nc1CCc1ccccc1CC(N)=O` [Compound 2, 2-(2-(2-(5-methyl-2-((4-(piperazin-1-yl)phenyl)amino)pyrimidin-4-yl)ethyl)phenyl)acetamide] yielded an IC50 of 4400 nM.
To `Cc1cnc(Nc2ccc(C3CCNCC3)nc2)nc1CCc1ccccc1CC(N)=O` [Compound 4, 2-(2-(2-(5-methyl-2-((6-(piperidin-4-yl)pyridin-3-yl)amino)pyrimidin-4-yl)ethyl)phenyl)acetamide] belongs above 10000 nM; to `CC(N)c1ccc(Nc2ncc(C(F)(F)F)c(CCc3ccccc3CC(N)=O)n2)cc1` (stereo not drawn) [Compound 18, 2-(2-(2-(2-(4-(1-aminoethyl)phenylamino)-5-(trifluoromethyl)pyrimidin-4-yl)ethyl)phenyl)acetamide], 2550 nM.
`Cc1cnc(Nc2cccnc2)nc1CCc1ccccc1CC(N)=O` [Compound 24, 2-(2-(2-(5-methyl-2-(pyridin-3-ylamino)pyrimidin-4-yl)ethyl)phenyl)acetamide] registered a concentration for half-maximal inhibition (IC50) above 10000 nM.
For `Cc1cnc(Nc2ccc(OC3CCNCC3)cc2)nc1CCc1ccccc1CC(N)=O` [Compound 26, 2-(2-(2-(5-methyl-2-((4-(piperidin-4-yloxy)phenyl)amino)pyrimidin-4-yl)ethyl)phenyl)acetamide] the value was 4070 nM; for `Cc1cnc(Nc2cnn(C)c2)nc1CCc1ccccc1CC(N)=O` [Compound 28, 2-(2-(2-(5-methyl-2-((1-methyl-^1H-pyrazol-4-yl)amino)pyrimidin-4-yl)ethyl)phenyl)acetamide], 6840 nM; for `Cc1cnc(Nc2ccc(C3(N)COC3)cc2)nc1CCc1ccccc1CC(N)=O` [Compound 31, 2-(2-(2-(2-(4-(3-aminooxetan-3-yl)phenylamino)-5-methylpyrimidin-4-yl)ethyl)phenyl)acetamide], 5100 nM.
In turn, `Cc1cnc(Nc2cnn(C3CCNCC3)c2)nc1CCc1ccccc1CC(N)=O` [Compound 33, 2-(2-(2-(5-Methyl-2-((1-(piperidin-4-yl)-^1H-pyrazol-4-yl)amino)pyrimidin-4-yl)ethyl)phenyl)acetamide] returned an IC50 above 10000 nM.
For the molecule `CC(N)c1ccc(Nc2ncc(Cl)c(CCc3ccccc3CC(N)=O)n2)cc1` (stereo not drawn) [Compound 37, 2-(2-(2-(2-(4-(1-aminoethyl)phenylamino)-5-chloropyrimidin-4-yl)ethyl)phenyl)acetamide], the midpoint of inhibition, the IC50, lay at 200 nM.

The values above are taken from patent US20150225377A1, “VEGFR3 INHIBITORS” (CANCER THERAPEUTICS CRC PTY LIMITED, priority 2012, published 2015).
